As a reminder, the half-life is the time needed for the level to fall by half in the phase considered. The low end stands for fast loss, the high end for slow loss.

In series [1] the test system is Candida albicans SLU-1 strain. In words: Serum stability, anti-fungal activity after serum incubation by radial diffusion bioassay. In kind it is in vitro ADME, rat or human serum. In short, it runs like this:
(§1)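 Anti-fungal activity against C. albicans SLU-1 was measured by radial diffusion on peptides recovered from serum. Recovery: 1 mg/mL peptide in equal volume of rat or human serum at 37° C, sampled at 0–4 h, C-18 extraction, HPLC, sequencing and ESI/MS.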

Assay in series [2]: as above
Particulars: Activity in Serum t ½ (hr.). In kind it is in vitro ADME, rat or human serum. Summed up:
as §1

Series [3] relates to endotoxin (E. coli O111:B4). In words: Mouse experimental endotoxemia model. As to conditions: endotoxin 20 mg/kg, 7 days. In kind it is in vivo. How it is done: Domain III derived peptides are also tested for LPS neutralizing efficacy in an in vivo mouse experimental endotoxemia model. […] This was followed by a second intravenous injection of the peptide to be tested. Injections of saline were used in negative control mice. […] The efficacy of the peptides was measured by a decrease in endotoxemia-associated mortality in peptide-injected mice as compared with control mice. […] No animals survived in the saline control group.

Series [4] concerns Crytococcus Neoformans 13690. The series is classed as cell-based, Cryptococcus neoformans. How it is done: In additional experiments, a fluorescence-activated cell sorter (FACS) based assay was developed to test the fungicidal activity of the peptides. […] Difco) agar. Several colonies were picked from the agar plate and inoculated into 5 mL of Sabouraud's Dextrose media in a sterile 10 mL polypropylene tube. The fungal cultures were incubated for about 18 hours at 30° C. […] The culture were centrifuged at 3000 rpm for 5 minutes (Sorvall RT 6000B). After centrifugation, the supernatant was decanted leaving the fungal pellets in the centrifuge tubes. The pellets were resuspended in 15 mL of SDB. Both suspensions were combined into one tube and mixed to generate a stock culture. […] After determining the concentration of the stock, appropriate dilutions were made with Sabouraud's Dextrose media to obtain 100 mL of 1×10^6 cell/mL. […] After the 1 hour incubation, all the tubes were centrifuged at 3000 rpm for 5 minutes. […] Louis, Mo.) in Dulbecco's PBS (DPBS, GIBCO, Grand Island, N.Y.) except the autofluorescence control, which was resuspended in DPBS alone. […] The settings were adjusted appropriately to the following approximate parameters: Cells were analyzed (10,000 cells/tube) and their respective fluorescence determined. […] The population of dead (i.e., propidium iodide stained) fungal cells was determined by a fluorescence threshold between the negative control and positive control.

For H-KSKVGWLIQLFHKK-NH2 [XMP.13], the “Activity in Serum t ½ (hr.)” value in series [1] was “indefinite”.

On to H-SKVKWLIQLFHKK-NH2 [XMP.284], for which the half-life at 0.5 mg/mL in series [2] was 14.6 h. Also, the “protection from endotoxemia-associated mortality” value in series [3] (0.5 mg/kg dose i.v., FIG. 9) is reported as “significant protection”. Also, the animals protected in series [3] (1 mg/kg dose i.v.) is given as 14 of 15. Besides, the “Activity of Peptides on Crytococcus Neoformans 13690, IC50” value in series [4] stood at 0.11 µg/mL.

These data come from patent US6664231B1, “Anti-fungal peptides” (priority 1993, dated 2003).
